Source: a melting point compilation (Tetko et al.)

Row | Structure (SMILES) | melting point
1 | Cc1nc2sccn2c1CO | 180 to 182 °C
2 | Cc1nn(C2CCS(=O)(=O)C2)c2ncc(C=O)cc12 (stereo unspecified) | 149 to 151 °C
3 | O=S(=O)(c1ccc(Cl)nc1)N1CCCC1 | 149 to 151 °C
4 | CCOC(=O)Nc1ccc(Br)cc1 | 79 to 81 °C
5 | NC(CSCCOc1ccccc1)C(=O)O (stereo unspecified) | 214 to 216 °C
6 | CSc1ccccc1NC(=O)C(C)Cl (stereo unspecified) | 59 to 61 °C
7 | O=C(CCCl)Nc1cccc([N+](=O)[O-])c1 | 75 to 77 °C
8 | Cc1ccc2[nH]cc(C(=O)O)c2c1 | 183 to 185 °C
9 | O=C(O)C1=Nc2cccc3cccc(c23)N1 | 210 to 212 °C
10 | C=CCNS(=O)(=O)C(C)(C)C | 53 to 55 °C
11 | COCCNc1ccc(C#N)cc1 | 66 to 68 °C
12 | OCc1coc(-c2ccccc2)n1 | 79 to 81 °C
13 | N#Cc1ccc(Cl)cc1S(=O)(=O)Cl | 79 to 81 °C
14 | Cc1nc(SCC(=O)O)c(C#N)c(C)c1C | 135 to 138 °C
15 | Cc1nn(C)c2c1NCC1CCCN21 (stereo unspecified) | 159 to 161 °C
16 | Cc1n[nH]c(C)c1C(C)CC(=O)O (stereo unspecified) | 195 to 197 °C
17 | CN1CCC(C(=O)O)c2ccccc21 (stereo unspecified) | 99 to 101 °C
18 | CCc1ccc(C(N)C(=O)O)cc1 (stereo unspecified) | 219 to 221 °C
19 | O=C(O)C=Cc1cnc2ccccc2n1 | 233 to 235 °C
20 | CC(=O)c1ccc(S(=O)(=O)Nc2ccc(C(=O)O)cc2)cc1 | 152 to 154 °C
21 | COc1ccc(C(=O)CC(C)=O)cc1 | 52 to 54 °C
22 | O=C(O)c1csc(C2CC2)n1 | 123 to 125 °C
23 | CN(C)c1ccc(C2NCC(CCl)O2)cc1 (stereo unspecified) | 104 to 106 °C
24 | Cc1ccc2ncc(C#N)n2c1 | 126 to 128 °C
25 | O=C(O)c1cc([N+](=O)[O-])ccc1SC1CCCC1 | 203 to 205 °C
26 | Cc1ccn2ncc(C(=O)O)c2n1 | 256 to 258 °C

Row | Structure (SMILES) | melting point
27 | Cc1cc(C(=O)O)ncn1 | 129 to 131 °C
28 | O=C(O)C=Cc1ccccc1OC(F)(F)F | 174 to 176 °C
29 | COc1ccc(NS(=O)(=O)c2ccc(C=CC(=O)O)cc2)cc1 | 238 to 240 °C
30 | CC(C)S(=O)(=O)c1ccc(CC(=O)O)cc1 | 146 to 148 °C
31 | COC(=O)COc1c(C)cc(C=O)cc1C | 50 to 52 °C
32 | CCN(CC)S(=O)(=O)c1ccc(-c2ccc(C=O)o2)cc1 | 119 to 121 °C
33 | O=C(CCl)NC1CCOc2ccccc21 (stereo unspecified) | 86 to 88 °C
34 | Nc1ccc(-c2cc3ccccc3o2)cc1 | 281 to 283 °C
35 | O=C(O)c1cn(Cc2ccccc2)nn1 | 176 to 178 °C
36 | CS(=O)(=O)OCCn1cnc2ccsc2c1=O | 112 to 114 °C
37 | Cc1c(CC#N)cccc1[N+](=O)[O-] | 79 to 81 °C
38 | Cc1cc(C(=O)CCl)c(C)n1-c1c(C)n(C)n(-c2ccccc2)c1=O | 160 to 162 °C
39 | Cc1c(C(=O)O)nnn1C1CCN(C(=O)OC(C)(C)C)CC1 | 179 to 181 °C
40 | O=C(CCl)NCc1cccc(NC(=O)C2CC2)c1 | 175 to 177 °C
41 | NCc1cc(Br)c[nH]1 | 105 to 107 °C
42 | O=C(O)c1ccc([N+](=O)[O-])s1 | 143 to 151 °C
43 | O=S(=O)(CCCl)c1cc(Cl)ccc1Cl | 80 to 82 °C
44 | NS(=O)(=O)c1cccc(N2C(=O)C=CC2=O)c1 | 220 to 222 °C
45 | Cc1noc(C(C)C)c1C(=O)O | 147 to 151 °C
46 | COC(=O)c1cccc(S(=O)(=O)Cl)c1 | 51 to 53 °C
47 | O=S(=O)(c1ccc(Cl)nc1)N1CCCCC1 | 130 to 132 °C
48 | O=C(O)CSc1ccccc1Cl | 115 to 117 °C
49 | Cc1ccc(NS(C)(=O)=O)c(C(=O)O)c1 | 195 to 197 °C
50 | Cc1c(C(=O)O)sc2nc3n(c(=O)c12)CCCCC3 | 253 to 255 °C
51 | Nc1ccc2nc(Cc3ccccc3)oc2c1 | 104 to 106 °C
52 | C=CCNC(=O)c1cccnc1Cl | 75 to 77 °C

Row | Structure (SMILES) | melting point
53 | Nc1ccc(Br)cc1S(=O)(=O)N1CCOCC1 | 142 to 144 °C
54 | NC(=S)c1cccc([N+](=O)[O-])c1 | 132 to 134 °C
55 | O=C(c1cccnc1)c1cc2ccccc2o1 | 106 to 108 °C
56 | O=C(O)C1(c2ccc(Br)cc2)CCOCC1 | 195 to 197 °C
57 | Nc1cc(C2CCCO2)no1 (stereo unspecified) | 68 to 70 °C
58 | N#CCc1c[nH]c2ccc(F)cc12 | 54 to 56 °C
59 | Cc1cc(C(=O)O)ccc1N1CCCS1(=O)=O | 174 to 176 °C
60 | Cc1ccc(-c2nnc(N)o2)s1 | 247 to 249 °C
61 | NC1=C(c2nc3ccccc3[nH]2)C(=O)CN1N | 296 to 300 °C
62 | C=CCNc1nnc(S)s1 | 133 to 135 °C
63 | COC(=O)c1cc(C)cc([N+](=O)[O-])c1 | 80 to 82 °C
64 | O=C(O)CCc1ccc(-c2ccccc2)[nH]1 | 197 to 199 °C
65 | CC(C)Oc1ccc(S(=O)(=O)N2CCCCC2)cc1NC(=O)CCl | 270 to 272 °C
66 | O=C(O)CCNC(=O)c1ccsc1 | 235 to 237 °C
67 | CCn1nc(C)c(C(=O)O)c1C(F)(F)Cl | 111 to 113 °C
68 | C/C(=C\C(=O)O)C12CC3CC(CC(C3)C1)C2 | 169 to 171 °C
69 | Nn1c(S)nnc1SCc1ccccc1 | 157 to 159 °C
70 | Cc1ccc(-c2ccncc2)cc1N | 202 to 204 °C
71 | O=C(O)c1cc(NS(=O)(=O)c2ccc(Cl)c([N+](=O)[O-])c2)ccc1O | 239 to 241 °C
72 | C#CCOc1ccccc1O | 48 to 50 °C
73 | COc1cccc2[nH]cc(CC#N)c12 | 133 to 135 °C
74 | COc1ccc(-c2cnc(CCC(=O)O)o2)cc1 | 158 to 160 °C
75 | Cn1cc(C(=O)O)c(C(C)(C)C)n1 | 140 to 142 °C
76 | SCCCNc1ncccn1 | 45 to 47 °C
77 | CCC(C)(C)C1CCc2c(sc(NC(=O)CCl)c2C#N)C1 (stereo unspecified) | 100 to 102 °C
78 | N#Cc1ccc(Nc2ccc(Cl)cc2)cc1 | 139 to 141 °C

Row | Structure (SMILES) | melting point
79 | Sc1nnc(-c2cccs2)n1-c1ccccc1 | 269 to 271 °C
80 | CC(=O)c1cc2cc(C)c(C)cc2o1 | 89 to 91 °C
81 | Nc1nc2ccccc2n1-c1ccccc1F | 121 to 123 °C
82 | Cc1cccc(-c2cc(N)n(Cc3ccccc3)n2)c1 | 79 to 81 °C
83 | Clc1ncc(Br)c2ccccc12 | 98 to 100 °C
84 | Cc1ccc(NC(=S)NN)cc1C | 176 to 178 °C
85 | O=C(O)c1ccnc(OCC(F)(F)F)c1 | 109 to 111 °C
86 | Nc1cc(Cl)ccc1-n1cncn1 | 93 to 97 °C
87 | Nc1n[nH]c2cccc(F)c12 | 171 to 173 °C
88 | CCc1nc(C=O)c2ccccn12 | 103 to 105 °C
89 | Nc1ccc(NC(=O)NC2CC2)cc1 | 161 to 163 °C
90 | c1ncn(C2CCNCC2)n1 | 97 to 99 °C
91 | NNc1cccc(C(F)(F)F)n1 | 62 to 64 °C
92 | O=S(=O)(c1ccc2c(c1)CCN2)N1CCOCC1 | 173 to 177 °C
93 | CC(C)c1nc(C(=O)O)nn1-c1ccccc1F | 159 to 161 °C
94 | CCCSc1ccc([N+](=O)[O-])c(N)c1 | 71 to 74 °C
95 | Cc1cc(-n2c(C)cc(C(=O)O)c2C)no1 | 175 to 180 °C
96 | O=C(O)c1ccc(Oc2ccc(F)cc2F)cc1 | 172 to 174 °C
97 | CCC(CC)(C(=O)O)c1ccc(Cl)c(Cl)c1 | 94 to 96 °C
98 | O=C(NC(C(=O)O)c1ccccc1)OCc1ccccc1 (stereo unspecified) | 130 to 132 °C
99 | NS(=O)(=O)c1ccccc1OC(F)F | 133 to 135 °C
100 | O=C(O)CS(=O)(=O)Cc1cccc(Br)c1 | 173 to 175 °C
101 | CC(C)(C)OC(=O)N1CCC(NCC(F)(F)F)CC1 | 51 to 53 °C
